According to ChEMBL document CHEMBL1201862, “PubChem BioAssay data set” (2004):
Where “and” joins values, the source holds several entries; their conditions need not be identical. Identical values can stand only once.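 Exposure lasted 48 hours, with cells grown in 96-well plates and compounds tested at five concentrations. Here, GI50 denotes the concentration required for 50% inhibition of growth.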 Calls of active or inactive are those of the source. No stated cut-off is given here; in the data, active = GI50 up to about 1.1 µM and inactive = higher.

How the values were obtained:
Assay in all cases: DTP human tumour cell line panel, 48 h
[1] = tested on: 786-0
[2] = tested on: A498
[3] = tested on: BT-549
[4] = tested on: CAKI-1
[5] = tested on: CCRF-CEM
[6] = tested on: EKVX
[7] = tested on: HL-60
[8] = tested on: HOP-92
[9] = tested on: Hs-578T
[10] = tested on: K562
[11] = tested on: M14
[12] = tested on: MDA-MB-231
[13] = tested on: MDA-MB-435
[14] = tested on: MOLT-4
[15] = tested on: Malme-3M
[16] = tested on: NCI-H226
[17] = tested on: NCI-H23
[18] = tested on: NCI-H460
[19] = tested on: NCI-H522
[20] = tested on: NCI/ADR-RES
[21] = tested on: OVCAR-3
[22] = tested on: OVCAR-5
[23] = tested on: PC-3
[24] = tested on: RPMI-8226
[25] = tested on: SF-268
[26] = tested on: SF-295
[27] = tested on: SF-539
[28] = tested on: SK-MEL-28
[29] = tested on: SK-MEL-2
[30] = tested on: SK-OV-3
[31] = tested on: SNB-19
[32] = tested on: SNB-75
[33] = tested on: TK-10
[34] = tested on: UACC-257
[35] = tested on: UACC-62
[36] = tested on: UO-31
[37] = tested on: LOX IMVI
[38] = tested on: MCF7
[39] = tested on: SR
[40] = tested on: A549
[41] = tested on: ACHN
[42] = tested on: HCC 2998
[43] = tested on: HCT-116
[44] = tested on: HCT-15
[45] = tested on: HOP-62
[46] = tested on: HT-29
[47] = tested on: KM12
[48] = tested on: OVCAR-8
[49] = tested on: SK-MEL-5
[50] = tested on: SN12C
[51] = tested on: SW-620
[52] = tested on: U-251
[53] = tested on: DU-145
[54] = tested on: T47D

SMILES: Cc1c(-c2c(C)c3ccccc3n2S(=O)(=O)c2ccccc2)n(S(=O)(=O)c2ccccc2)c2ccccc12
- GI50 [1]: 0.019 µM (active)
- GI50 [2]: > 100 µM (inactive)
- GI50 [3]: > 100 µM (inactive)
- GI50 [4]: 0.336 µM (active)
- GI50 [5]: > 100 µM (inactive)
- GI50 [6]: > 100 µM (inactive)
- GI50 [7]: > 100 µM (inactive)
- GI50 [8]: > 100 µM (inactive)
- GI50 [9]: > 100 µM (inactive)
- GI50 [10]: > 100 µM (inactive)
- GI50 [11]: > 22.2 µM (inactive)
- GI50 [12]: > 56.4 µM (inactive)
- GI50 [13]: > 100 µM (inactive)
- GI50 [14]: > 100 µM (inactive)
- GI50 [15]: 0.0299 µM (active)
- GI50 [16]: > 39.9 µM (inactive)
- GI50 [17]: > 72.8 µM (inactive)
- GI50 [18]: 0.0407 µM (active)
- GI50 [19]: > 100 µM (inactive)
- GI50 [20]: > 80 µM (inactive)
- GI50 [21]: 5.62 µM (inactive)
- GI50 [22]: > 51.6 µM (inactive)
- GI50 [23]: > 37.1 µM (inactive)
- GI50 [24]: > 100 µM (inactive)
- GI50 [25]: > 100 µM (inactive)
- GI50 [26]: > 100 µM (inactive)
- GI50 [27]: 0.0371 µM (active)
- GI50 [28]: > 100 µM (inactive)
- GI50 [29]: > 37.5 µM (inactive)
- GI50 [30]: > 82.6 µM (inactive)
- GI50 [31]: > 93.5 µM (inactive)
- GI50 [32]: > 31.6 µM (inactive)
- GI50 [33]: > 100 µM (inactive)
- GI50 [34]: > 100 µM (inactive)
- GI50 [35]: > 29.1 µM (inactive)
- GI50 [36]: > 100 µM (inactive)

SMILES: CC(C)(C)C1CCC2c3c([nH]c4ccccc34)C3C(=O)N(c4ccc(Cl)cc4)C(=O)C3C2C1 (configuration not stated)
- GI50 [2]: > 10 µM (inactive)
- GI50 [3]: > 100 µM (inactive)
- GI50 [5]: > 10 µM (inactive) and 19.5 µM (inactive)
- GI50 [7]: > 10 µM (inactive) and 17.7 µM (inactive)
- GI50 [37]: 12 nM (active)
- GI50 [38]: 31.3 µM (inactive)
- GI50 [15]: > 10 µM (inactive)
- GI50 [22]: 0.0209 µM (active)
- GI50 [29]: > 10 µM (inactive)
- GI50 [39]: > 10 µM (inactive) and 18 µM (inactive)

SMILES: CN1C2CC(C#N)C1C=CC2=O (configuration not stated)
- GI50 [7]: 18.9 µM (inactive) and 34.1 µM (inactive)
- GI50 [38]: 33.3 µM (inactive) and 57.8 µM (inactive)
- GI50 [29]: 29 µM (inactive) and 33.7 µM (inactive)
- GI50 [30]: 43.1 µM (inactive) and 24.8 µM (inactive)
- GI50 [31]: 87.1 µM (inactive)

SMILES: Cc1ncc([N+](=O)[O-])n1CC(O)Cn1ccnc1[N+](=O)[O-] (configuration not stated)
- GI50 [1]: > 100 µM (inactive)
- GI50 [2]: > 100 µM (inactive)
- GI50 [40]: > 100 µM (inactive)
- GI50 [41]: > 100 µM (inactive)
- GI50 [5]: > 100 µM (inactive)
- GI50 [6]: > 100 µM (inactive)
- GI50 [42]: > 100 µM (inactive)
- GI50 [43]: > 100 µM (inactive)
- GI50 [44]: > 100 µM
- GI50 [7]: > 100 µM (inactive)
- GI50 [45]: > 100 µM (inactive)
- GI50 [46]: > 100 µM (inactive)
- GI50 [9]: > 100 µM (inactive)
- GI50 [10]: > 100 µM (inactive)
- GI50 [47]: > 100 µM (inactive)
- GI50 [38]: > 100 µM (inactive)
- GI50 [14]: > 100 µM (inactive)
- GI50 [15]: > 100 µM (inactive)
- GI50 [16]: > 100 µM (inactive)
- GI50 [17]: > 100 µM (inactive)
- GI50 [18]: > 100 µM (inactive)
- GI50 [19]: > 100 µM (inactive)
- GI50 [21]: > 100 µM (inactive)
- GI50 [22]: > 100 µM (inactive)
- GI50 [48]: > 100 µM (inactive)
- GI50 [23]: > 100 µM (inactive)
- GI50 [24]: > 100 µM (inactive)
- GI50 [25]: > 100 µM (inactive)
- GI50 [26]: > 100 µM (inactive)
- GI50 [27]: > 100 µM (inactive)
- GI50 [28]: > 100 µM (inactive)
- GI50 [29]: > 100 µM (inactive)
- GI50 [49]: > 100 µM (inactive)
- GI50 [50]: > 100 µM (inactive)
- GI50 [32]: > 100 µM (inactive)
- GI50 [39]: > 100 µM (inactive)
- GI50 [51]: > 100 µM (inactive)
- GI50 [33]: > 100 µM (inactive)
- GI50 [52]: > 100 µM (inactive)
- GI50 [34]: > 100 µM (inactive)

SMILES: NC(CN(O)N=O)C(=O)O (configuration not stated) [LALANOSINE]
- GI50 [40]: 268 nM (active) and 204 nM (active)
- GI50 [41]: 1.42 µM (inactive) and 1.82 µM (inactive)
- GI50 [53]: > 100 µM (inactive)
- GI50 [7]: 11.4 µM (inactive)
- GI50 [46]: 10.1 µM (inactive) and 17.7 µM (inactive)
- GI50 [47]: 304 nM (active) and 360 nM (active)
- GI50 [37]: 412 nM (active) and 333 nM (active)
- GI50 [12]: 87.9 µM (inactive)
- GI50 [14]: 40 µM (inactive) and 29.2 µM (inactive)
- GI50 [20]: 18.7 µM (inactive)
- GI50 [22]: 3.73 µM (inactive) and 4.13 µM (inactive)
- GI50 [48]: 12.5 µM (inactive) and 23.8 µM (inactive)
- GI50 [26]: 8.36 µM (inactive) and 8.63 µM (inactive)
- GI50 [27]: 8.63 µM (inactive)
- GI50 [29]: > 100 µM (inactive) and 70 µM (inactive)
- GI50 [54]: 87.9 µM (inactive)
